Entries after “also recorded” stand apart in the source; their conditions may differ.
What was measured:
Assay type in all cases: in vivo, human
serpinB2 protein = experiment: ELISA for serpinB2 protein levels in bronchoalveolar lavage; details: Post-fluticasone (follow-up bronchoscopy, 1 week)
Excerpt: Periostin and serpin B2 have not previously been associated with asthma, and we examined their expression at the protein level. […] However, in asthmatics, serpinB2 levels increased in all subjects at the second bronchoscopy (Table 4s, supplementary appendix). The increase in serpinB2 at the second bronchoscopy likely reflects a pro-coagulation response to the minor bleeding that accompanied bronchial biopsy during the first bronchosocopy. ELISA for serpinB2 protein levels in bronchoalveolar lavage fluid was performed using a commercially available kit (Imubind PAI-2 ELISA, American Diagnostica Inc, Stamford Conn.) according to the manufacturer's directions.

[1] = Methacholine responsiveness (PC20) in the clinical trial; details: 4 and 8 weeks
Description: Protocol: This was a 6 visit, 10 week, randomized, double-blind, placebo-controlled trial specifically designed to determine the effects of inhaled fluticasone on airway gene expression and to relate those gene expression changes to improvements in lung function. After a one-week run-in/characterization period, subjects were randomized to receive 2 puffs BID of fluticasone propionate (250 μg/puff) or matching placebo for 8 weeks, followed by a one week run-out. Subjects were randomized in blocks designed to yield a greater number of subjects randomized to fluticasone as compared to placebo in order to maximize our ability to relate gene expression to lung function improvements within the intervention group. […] Spirometry was measured at baseline, before both bronchoscopies, at 4 and 8 weeks after starting study medication, and after the one week run-out according to American Thoracic Society criteria using a dry rolling-seal spirometer (Model VRS2000, PDS Instrumentation, S&M Instrument Co., Doylestown, Pa.). Methacholine responsiveness was measured at baseline and at 4 and 8 weeks after starting study medication using a five-breath dosimeter method (modified from Chai et al).^5

Periostin = Periostin immunohistochemistry in bronchial biopsies with design-based stereology; details: one week of treatment with fluticasone
Excerpt: Periostin protein expression was confirmed by immunohistochemistry in bronchial biopsies from a subset of asthmatic and healthy control subjects. Periostin immunolocalized to the subepithelium in all subjects, and quantification confirmed increased expression in asthma (FIG. 3). The degree of immunostaining in asthmatics was not decreased by one week of treatment with fluticasone (FIG. 6, supplementary appendix). Paraffin-embedded sections were deparaffinized and re-hydrated to water. Next, all sections were incubated in 3% hydrogen peroxide/absolute methanol for 10 minutes to block endogenous peroxidase activity. […] Biopsies were formalin-fixed and paraffin-embedded and then analyzed using methods of tissue immunohistochemistry (described above) and design-based stereology.^6 First, the volume of immunohistochemical staining, the volume of submucosal tissue surveyed, and the surface area of the epithelial basal lamina surveyed were determined by point and intersection counting using an integrated microscope (Olympus; Albertslund, Denmark), video camera (JVC Digital Color, JVC A/S; Tatstrup, Denmark), automated microscope stage, and computer (Dell Optiplex GS270 PC running Computer-Assisted Stereology Toolbox [C.A.S.T.] […] Points overlying submucosal tissue that is immunostained and unstained were counted separately along with intersections of test lines with basal lamina. […]

[2] = Lung function (FEV1) in the clinical trial; details: by one week, sustained at 4 weeks and 8 weeks; inhaled fluticasone 500 μg twice daily
Description: In three cross sectional studies and a clinical trial, epithelial brushings were collected by bronchoscopy from 42 subjects with asthma, 16 current smokers without asthma, and 28 healthy controls. Cross-sectional studies comprised 2 visits, the first for characterization and the second for bronchoscopy. The clinical trial was a 10 week, randomized, double-blind, placebo-controlled trial specifically designed to determine the effects of inhaled fluticasone (500 μg twice daily) on airway gene expression and to relate gene expression changes to improvements in lung function (FIG. 1). Bronchoscopy was performed at baseline and repeated 1 week after starting study drug. Thirty-five subjects had adequate baseline bronchoscopy and 32 had RNA available from epithelial brushings at both bronchoscopies. Lung function was measured at intervals over the 8-week treatment period. […] Spirometry was measured at baseline, before both bronchoscopies, at 4 and 8 weeks after starting study medication, and after the one week run-out according to American Thoracic Society criteria using a dry rolling-seal spirometer (Model VRS2000, PDS Instrumentation, S&M Instrument Co., Doylestown, Pa.). Methacholine responsiveness was measured at baseline and at 4 and 8 weeks after starting study medication using a five-breath dosimeter method (modified from Chai et al).^5

CCC(=O)O[C@]1(C(=O)SCF)[C@H](C)C[C@H]2[C@@H]3C[C@H](F)C4=CC(=O)C=C[C@]4(C)[C@@]3(F)[C@@H](O)C[C@@]21C [fluticasone, fluticasone propionate]
SerpinB2 protein levels in bronchoalveolar lavage, Mean (serpinB2 protein): 0.91 ng/mL | PC20 methacholine improvements, fluticasone versus placebo [1]: not statistically different; also recorded: no statistically significant differences | Degree of periostin immunostaining in bronchial biopsies of asthmatics (Periostin): not decreased | Improvement in FEV1 versus placebo [2]: greater improvements in FEV1 than placebo

Reference: patent US20070275925A1, “ASTHMA DIAGNOSIS AND THERAPY” (REGENTS OF THE UNIVERSITY OF CALIFORNIA, priority 2006, published 2007)
